Activity calls are given as the source filed them. The rule behind the calls is not given here.
What was measured:
Hemozoin = experiment: Inhibition of beta-hematin formation in Plasmodium falciparum by UV-visible SpectraMax P340 plate reader analysis
Plasmodium falciparum [1] = experiment: Antimalarial activity against chloroquine-sensitive Plasmodium falciparum NF54 assessed as inhibition of parasite growth by lactate dehydrogenase assay; assay type: functional, organism-based
Plasmodium falciparum [2] = experiment: Antimalarial activity against chloroquine-sensitive Plasmodium falciparum 3D7 assessed as growth inhibition at 1 to 2 uM; assay type: functional, organism-based; details: dose 1-2 µM
Plasmodium falciparum [3] = experiment: Resistance index, ratio of IC50 for antimalarial activity against chloroquine-resistant Plasmodium falciparum K1 to IC50 for antimalarial activity against chloroquine-sensitive Plasmodium falciparum NF54; assay type: functional
Plasmodium falciparum [4] = experiment: Antimalarial activity against chloroquine-resistant Plasmodium falciparum K1 assessed as inhibition of parasite growth by lactate dehydrogenase assay; assay type: functional, organism-based
[5] = Cytotoxicity against CHO cells assessed as reduction in cell viability by MTT assay; assay type: toxicity, cell-based; details: Chinese hamster (Cricetulus griseus)
[6] = Selectivity index, ratio of IC50 for cytotoxicity against CHO cells to IC50 for antimalarial activity against chloroquine-sensitive Plasmodium falciparum NF54; assay type: toxicity, cell-based; details: hamster, CHO cells versus Plasmodium falciparum NF54; read-out: Ratio IC50
Plasmodium falciparum [7] = experiment: Antimalarial activity against synchronized ring stage Plasmodium falciparum assessed as accumulation of free heme at 25 to 100 nM incubated for 20 hrs by absorbance based analysis; assay type: functional, organism-based; details: dose 25-100 nM
Plasmodium falciparum [8] = experiment: Antimalarial activity against synchronized ring stage Plasmodium falciparum assessed as reduction in hemozoin level at 25 to 100 nM incubated for 20 hrs by absorbance based analysis; assay type: functional, organism-based; details: dose 25-100 nM
Plasmodium falciparum [9] = experiment: Antimalarial activity against chloroquine-sensitive Plasmodium falciparum 3D7 assessed as growth inhibition at 1 uM; assay type: functional, organism-based
Plasmodium falciparum [10] = experiment: Antimalarial activity against chloroquine-sensitive Plasmodium falciparum 3D7 assessed as growth inhibition at 1 uM relative to control; assay type: functional; design: scale not given: the % may be the effect or the level left
Falcipain 2 = molecular target: T1, Falcipain 2 (Plasmodium falciparum, UniProt Q9N6S8); experiment: Binding affinity to N-terminal 6His-tagged recombinant Plasmodium falciparum FP2 expressed in Escherichia coli M15 assessed as dissociation constant incubated for 15 mins in presence of lysine reactive dye by microscale thermophoretic analysis
T1 sequence (Q9N6S8 whole entry): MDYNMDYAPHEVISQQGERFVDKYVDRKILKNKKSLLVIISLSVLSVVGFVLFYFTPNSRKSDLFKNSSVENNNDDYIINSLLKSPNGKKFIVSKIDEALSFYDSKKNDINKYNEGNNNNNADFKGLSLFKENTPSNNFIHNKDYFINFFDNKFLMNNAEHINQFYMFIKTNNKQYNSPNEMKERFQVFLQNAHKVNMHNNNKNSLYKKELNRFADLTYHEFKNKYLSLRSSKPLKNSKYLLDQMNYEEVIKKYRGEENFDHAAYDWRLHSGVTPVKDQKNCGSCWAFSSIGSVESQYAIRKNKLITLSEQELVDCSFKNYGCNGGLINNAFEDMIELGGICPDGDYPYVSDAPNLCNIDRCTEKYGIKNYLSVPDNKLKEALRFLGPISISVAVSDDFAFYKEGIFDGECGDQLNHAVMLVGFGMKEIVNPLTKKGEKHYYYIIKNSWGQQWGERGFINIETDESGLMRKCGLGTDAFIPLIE

Plasmodium falciparum [11] = experiment: Antimalarial activity against schizont stage Plasmodium falciparum infected in erythrocytes assessed as reduction in proteolytic activity at 5 uM pre-incubated for 1 hr followed by Z-Phe-Arg-AMC addition and measured after 5 to 10 mins by confocal microscopic analysis relative to control; assay type: functional, Erythrocyte; design: scale not given: the % may be the effect or the level left; details: time 65-70 min

IC50 (Hemozoin) [µM]	SMILES	IC50 (Plasmodium falciparum [1]) [µM]	further results
21.4	O=C(Cn1cc(CN2CCN(c3ccnc4cc(Cl)ccc34)CC2)nn1)Nc1ccccc1[N+](=O)[O-]	2.9	–
28.9	O=C(Cn1cc(CN2CCN(c3ccnc4cc(Cl)ccc34)CC2)nn1)Nc1ccc([N+](=O)[O-])cc1	3.23	–
14	COc1ccccc1NC(=O)Cn1cc(CN2CCN(c3ccnc4cc(Cl)ccc34)CC2)nn1	3.26	–
17.4	COc1cccc(NC(=O)Cn2cc(CN3CCN(c4ccnc5cc(Cl)ccc45)CC3)nn2)c1	3.56	–
–	Clc1ccc2c(N3CCN(Cc4cn(-c5ccnc6cc(Cl)ccc56)nn4)CC3)ccnc2c1	–	Activity (Plasmodium falciparum [2]): Active
17.2	Cc1cccc(NC(=O)Cn2cc(CN3CCN(c4ccnc5cc(Cl)ccc45)CC3)nn2)c1	3.5	–
–	C[C@@H](NC(=O)Cn1cc(CN2CCN(c3ccnc4cc(Cl)ccc34)CC2)nn1)C(=O)O	–	Activity (Plasmodium falciparum [2]): inactive
–	O=C(OCc1cn(-c2ccnc3cc(Cl)ccc23)nn1)c1cccc([N+](=O)[O-])c1	–	Activity (Plasmodium falciparum [2]): inactive
21.3	O=C(Cn1cc(CN2CCN(c3ccnc4cc(Cl)ccc34)CC2)nn1)Nc1ccccc1F	3.16	–
19.4	O=C(Cn1cc(CN2CCN(c3ccnc4cc(Cl)ccc34)CC2)nn1)Nc1ccc(Br)cc1	6.45	–
–	COC(=O)[C@H](C)NC(=O)Cn1cc(COc2cccc3ccccc23)nn1	–	Activity (Plasmodium falciparum [2]): Active
–	COC(=O)[C@H](Cc1ccccc1)NC(=O)Cn1cc(CN2CCN(c3ccnc4cc(Cl)ccc34)CC2)nn1	–	Activity (Plasmodium falciparum [2]): Active
23.3	CCN(CC)CCCC(C)Nc1ccnc2cc(Cl)ccc12 (configuration not stated) [CHLOROQUINE]	–	Activity (Plasmodium falciparum [7]): Active; Activity (Plasmodium falciparum [8]): Active
10.9	CCN(CC)Cc1cc(Nc2ccnc3cc(Cl)ccc23)ccc1O [AMODIAQUINE]	–	–
–	COC(=O)[C@H](C)NC(=O)Cn1cc(CN2CCN(c3ccnc4cc(Cl)ccc34)CC2)nn1	–	Activity (Plasmodium falciparum [9]): Active
–	Clc1ccc2c(N3CCN(Cc4cn(-c5ccnc6ccccc56)nn4)CC3)ccnc2c1	–	Activity (Plasmodium falciparum [2]): Active
–	Clc1ccc2c(N3CCN(Cc4cn(-c5cccc6ccccc56)nn4)CC3)ccnc2c1	–	Activity (Plasmodium falciparum [2]): inactive
–	Cc1ccccc1-n1cc(CN2CCN(c3ccnc4cc(Cl)ccc34)CC2)nn1	–	Activity (Plasmodium falciparum [10]): >50%
–	Clc1ccc2c(N3CCN(Cc4cn(-c5ccccc5Cl)nn4)CC3)ccnc2c1	–	Activity (Plasmodium falciparum [10]): >50%
19.8	O=C(Cn1cc(CN2CCN(c3ccnc4cc(Cl)ccc34)CC2)nn1)Nc1ccccc1	4.98	–
17.4	Cc1ccccc1NC(=O)Cn1cc(CN2CCN(c3ccnc4cc(Cl)ccc34)CC2)nn1	4.17	–
8.4	O=C(Cn1cc(CN2CCN(c3ccnc4cc(Cl)ccc34)CC2)nn1)Nc1ccc(Cl)cc1	4.68	–
12.7	COC(=O)c1ccc(NC(=O)Cn2cc(CN3CCN(c4ccnc5cc(Cl)ccc45)CC3)nn2)cc1	4.14	–
19.7	COc1ccc(NC(=O)Cn2cc(CN3CCN(c4ccnc5cc(Cl)ccc45)CC3)nn2)cc1	6.73	–
–	O=[N+]([O-])c1cccc(-n2cc(CN3CCN(c4ccnc5cc(Cl)ccc45)CC3)nn2)c1	–	Activity (Plasmodium falciparum [10]): >50%
–	CC(C)C[C@H](NC(=O)[C@H]1O[C@@H]1C(=O)O)C(=O)NCCCCN=C(N)N [E-64]	–	Kd (Falcipain 2): 1.18 µM; Activity (Plasmodium falciparum [11]): 100%
–	CCOC(=O)CNC(=O)Cn1cc(CN2CCN(c3ccnc4cc(Cl)ccc34)CC2)nn1	–	Activity (Plasmodium falciparum [2]): Active

SMILES	IC50 (Hemozoin) [µM]	IC50 (Plasmodium falciparum [1]) [µM]	further results
O=C(Cn1cc(CN2CCN(c3ccnc4cc(Cl)ccc34)CC2)nn1)Nc1cccc(Cl)c1	15.6	1.83	Ratio IC50 (Plasmodium falciparum [3]): 4.74; IC50 (Plasmodium falciparum [4]): 8.68 µM; IC50 [5]: > 503 µM; selectivity ratio [6]: > 275
Cc1ccc(NC(=O)Cn2cc(CN3CCN(c4ccnc5cc(Cl)ccc45)CC3)nn2)cc1	18.6	1.8	Ratio IC50 (Plasmodium falciparum [3]): 2.4; IC50 (Plasmodium falciparum [4]): 4.37 µM; IC50 [5]: 33.8 µM; selectivity ratio [6]: 18.8
O=C(Cn1cc(CN2CCN(c3ccnc4cc(Cl)ccc34)CC2)nn1)Nc1ccccc1Cl	19.2	1.79	Ratio IC50 (Plasmodium falciparum [3]): 3.29; IC50 (Plasmodium falciparum [4]): 5.9 µM; IC50 [5]: 126 µM; selectivity ratio [6]: 70.3
O=C(Cn1cc(CN2CCN(c3ccnc4cc(Cl)ccc34)CC2)nn1)Nc1ccc(F)cc1	20.6	1.74	Ratio IC50 (Plasmodium falciparum [3]): 1.77; IC50 (Plasmodium falciparum [4]): 3.08 µM; IC50 [5]: 326 µM; selectivity ratio [6]: 188
O=C(Cn1cc(CN2CCN(c3ccnc4cc(Cl)ccc34)CC2)nn1)Nc1cccc(F)c1	10.6	1.69	Ratio IC50 (Plasmodium falciparum [3]): 1.7; IC50 (Plasmodium falciparum [4]): 2.92 µM; IC50 [5]: 146 µM; selectivity ratio [6]: 86.5

— ChEMBL document CHEMBL5523667, “Blood-stage antimalarial activity, favourable metabolic stability and in vivo toxicity of novel piperazine linked 7-chloroquinoline-triazole conjugates” (Eur J Med Chem, 2024)
